Assay results as given in patent US20120058133A1, “INHIBITION OF TRNA SYNTHETASES AND THERAPEUTIC APPLICATIONS THEREOF” (President and Fellows of Harvard College, priority 2009, published 2012).
Entries after “also recorded” stand apart in the source; their conditions may differ.

What was measured:
[1] = tested on: GCN2 phosphorylation / AAR pathway; assay: AAR pathway activation in MEFs (GCN2, eIF2a phosphorylation, CHOP); type: cell-based, mouse; conditions: for reversal of GCN2 phosphorylation by cognate amino acid: 2 mM proline or 2 mM threonine; for GCN2 phosphorylation in fibroblasts: 2 hours, borrelidin 1 μM
Procedure: FIG. 24. Activation of the AAR in cells by HF/FF occurs through inhibition of proline utilization. FIG. 24A is a gel showing HF-induction of the AAR pathway is reversed by proline. MEFs were treated with the indicated concentration of HF or FF in the presence or absence of 2 mM Proline for 2 hours (left) or treated with 1 μM borrelidin in the presence or absence of 2 mM Threonine for 2 hours (right). Cells were lysed and assessed by anti-pGCN2 or anti-GCN2 Western blot. Data are representative of three separate experiments.
FIG. 24B is a gel showing HF induction of eIF2a phosphorylation and CHOP expression is GCN2 dependent. Wild Type or GCN2−/− MEFs were treated with 50 nM HF in the presence or absence of 2 mM proline. Cells were lysed at 2 hours post-HF addition (peIF2a) or 6 hours post-HF addition (CHOP) and analyzed for phosphoprotein or total protein levels by Western blot.

[2] = tested on: translation in rabbit reticulocyte lysate; assay: In vitro translation in rabbit reticulocyte lysate (RRL); type: biochemical; conditions: for translation of luciferase RNA in RRL: standard amino acid mix
Procedure: FIG. 23. HF and FF inhibit prolyl tRNA synthetase activity in vitro. […] Rabbit reticulocyte lysate (RRL) was incubated with luciferase mRNA and translation quantitated in a luminescence assay. A high concentration of mixed or individual amino acids (1 mM of each) was added to rescue translational inhibition. AA Mix 1: Asn, Arg, Val, Glu, Gly; AA Mix2: Lys, Ile, Tyr, Asp, Trp; Mix 3: His, Met, Leu, Ala, Thr; Mix 4: Ser, Phe, Pro, Gln. […] Note log scale of y axis.
Inhibitors (FIG. 22) and proline were assayed as described in FIG. 23A. Note log scale at Y axis. Error bars reflect standard deviation of triplicate determinations.
Short myc-tagged polypeptides of identical sequence (see Example 9, “Materials and Methods”) with the exception that NoPro lacks proline, while ProPro contains a proline dipeptide, were translated in RRL in the presence of indicated inhibitors. Translation was examined by anti-myc Western blot.
Note log scale of Y axis.
Translation in vitro was performed using rabbit reticulocyte lysates and luciferase mRNA as template. Translation was measured as arbitrary units of luciferase activity using a luminometer based luminescence assay. Log scale presentation of background-subtracted data is shown.

[3] = Cell-based assays (not specified)
[4] = tested on: mouse and human fibroblasts; assay: Collagen protein production in mouse and human fibroblasts; type: cell-based; conditions: data not shown
[5] = tested on: murine CD4+ CD25− T cells; assay: Th17 differentiation of activated CD4+ CD25− T cells (TGFβ plus IL-6; IL-17+ IFNγ− cells); type: cell-based, mouse; conditions: for reversal of Th17 inhibition by threonine: 6 nM borrelidin, 0.5 mM threonine; for IL-17 production / Th17 differentiation: 0.2 mM L-tryptophanol
Procedure: (§1) Purified CD4^+ CD25^− T cells were activated in vitro as previously described (Djuretic et al., Nat. Immunol. 8:145, 2007) using 0.3 μg/ml hamster anti-mouse CD3 (clone 145-2C11) (ATCC—Manassas, Va.) and 0.5 μg/ml hamster anti-mouse CD28 (BD Pharmingen—San Jose, Calif.). Activated cell cultures were differentiated using the following combinations of cytokines and antibodies: iTreg-recombinant human TGFβ1 (3 ng/ml—R&D systems, Minneapolis, Minn.), Th17-TGFβ1 (3 ng/ml) plus recombinant mouse IL-6 (30 ng/ml—R&D systems). Th1 and Th2 differentiation was performed as previously described (Djuretic et al., Nat. Immunol. 8:145, 2007). Human IL-2 supernatant (National Cancer Institute) was used in culture at 0.01 U/ml and was added at 48 hours-post activation when T cells were split into tissue culture wells lacking CD3 and CD28 antibodies, with the exception of Th17 cultures that were maintained in the absence of exogenous IL-2. CD8^+ T cells were activated with 1 μg/ml anti-CD3 and 1 μg/ml anti-CD28 and were expanded in 0.1 U/ml IL-2 until day 6 post activation. CD43-depleted B cells were activated in vitro by culturing with 25 μg/ml LPS (Sigma—St. Louis, Mo.) for 3-4 days in the presence or absence of TGFβ. All reagents (see below) were added at the time of T cell activation and again at 48 hours post activation unless indicated otherwise. For some experiments, purified CD4^+ CD25^− T cells, CD8^+ T cells or B cells were labeled with 1 μM CFSE (Invitrogen) prior to activation in accordance with manufacturer's instructions. Human T cell activation was performed by plating purified monocytes in a 96-well flat bottom plate at a concentration of 2×10^4 cells per well in complete medium overnight. 10^5 purified human memory T cells were added to monocyte cultures in the presence of soluble anti-CD3/anti-CD28 beads (Dynabeads, Invitrogen). T cells were expanded in the presence HF or MAZ1310 for up to 6 days.
MAZ1310 (Kamberov, Ph.D. Dissertation, Harvard University, 2008) was generated by chemical derivatization of halofuginone and was used at equal concentrations as a negative control. HF and MAZ1310 were prepared as 100 mM stock solutions in DMSO and diluted to the indicated concentrations. SB-431542 (Inman et al., Mol. Pharmacol. 62:65, 2002) (Tocris bioscience—Ellisville, Mo.) was prepared as a 10 mM stock solution in DMSO and was used in culture at 10 μM. L-tryptophanol was prepared as a 20 mM stock solution in 0.1 M NaOH, pH 7.4 and was used at 0.2 mM. For amino acid starvation experiments, T cells were activated and differentiated as above in D-MEM medium without L-cysteine and L-methionine (Invitrogen—Carlsbad, Calif.), or D-MEM medium without L-leucine. Stocks containing 20 mM L-cysteine (Sigma—St. Louis, Mo.) plus 10 mM L-methionine (Sigma), or 400 mM L-leucine (Sigma) were prepared in ddH2O, pH 1.0 and were added to medium at the indicated concentrations.
(§2) For detection of intracellular cytokines in murine cells, cultured T or B cells were stimulated with 10 nM PMA (Sigma) and […] (Sigma) for 4-5 hours in the presence of 10 mM brefeldin A (Sigma). Stimulated cells were harvested, washed with PBS and fixed with PBS plus 4% paraformaldehyde at room temperature for 20 minutes. Cells were then washed with PBS, permeabilized with PBS supplemented with 1% BSA and 0.5% saponin (Sigma) at room temperature for 10 minutes before cytokine-specific antibodies were added and incubated with cells for an additional 20 minutes at room temperature.

[6] = tested on: murine CD4+ CD25− T cells, CD8+ T cells, B cells; assay: T and B cell activation, proliferation, cytokine production and Th1/Th2/iTreg differentiation; type: cell-based, mouse; conditions: 3 ng/ml Borrelidin
Procedure: FIG. 2A, Left, is a graph showing dose response analyses performed on activated carboxyfluorescein succinimidyl ester (CFSE)-labeled CD4^+CD25^− T cells in the presence of DMSO, 40 nM MAZ1310, or increasing concentrations of halofuginone (HF) (1.25-40 nM). CFSE dilution and cell surface CD25 expression were determined 48 hours after activation. Intracellular cytokine production was determined on day 4 or 5 following restimulation with phorbol myristate acetate (PMA) and ionomycin. […] FIG. 2A, Right is a graph showing dose-response analyses of HF effects on CD8^+ T cell or B cell function. Cells were activated in the presence of DMSO, 40 nM MAZ1310, or increasing concentrations of HF (1.25-40 nM). CFSE dilution, cell surface CD25 expression, and intracellular cytokine production were determined as above 2-5 days after activation.
At approximately 10-fold higher concentrations (>20 nM), HF induced a general inhibition of T and B cell activation, proliferation, and effector function (FIG. 2A, 2B).
as §1
Cytokines secreted into media supernatant were measured using the mouse Th1/Th2 cytometric bead array (CBA—BD Pharmingen) in accordance with manufacturers instructions. Briefly, CD4+ CD25− T cells were activated in anti-CD3/anti-CD28-coated tissue culture wells (see above) and supernatants were collected at the indicated times.
as §2, with “temperature. […]” for “temperature.”

TGFβ signaling = assay: Lymphocyte responses to TGFβ (Smad phosphorylation and others); type: cell-based, mouse; conditions: low dose HF; 10 μM SB-431542
Procedure: FIG. 8. […] FIG. 8A is a set of FACS analyses of CD4^+ CD25^− T cells activated in Th1 or Th2 polarizing conditions, either in the presence or absence of TGFβ. DMSO, 10 nM HF, 10 nM MAZ1310, or 10 μM SB-431542 added as indicated at the time of activation. Intracellular cytokine staining was performed on expanded T cells on day 5.
FIG. 8B is a set of FACS analyses of CD8^+ T cells activated in the presence or absence of TGFβ and cultured with DMSO, 10 nM HF, 10 nM MAZ1310, or 10 μM SB-431542. Expanded cells were restimulated on day 5 and intracellular staining was performed.
FIG. 8C is a set of FACS analyses of CFSE-labeled B cells activated by LPS stimulation in the presence or absence of TGFβ plus DMSO, 10 nM HF, 10 nM MAZ1310, or 10 μM SB-431542. Intracellular IL-6 production in B cells restimulated with PMA plus ionomycin, or cell-surface IgA expression was determined 4 days after activation.
FIG. 8D depicts western blot analyses of purified CD4^+ CD25^− T cells treated with DMSO, 40 nM MAZ1310, titrating concentrations of HF (2.5-40 nM) or 10 μM SB-431542 for 30 minutes in complete medium supplemented with 0.1% fetal calf serum. T cells were then activated in the presence or absence of 3 ng/ml TGFβ. Whole cell extracts were prepared after 1 hour of stimulation and western blot analyses were performed using the indicated antibodies. […]

Q: With `O=C(C[C@H]1NCCC[C@@H]1O)Cn1cnc2ccccc2c1=O` [FF, febrifugine] as the compound, how does the “reversal of GCN2 phosphorylation by cognate amino acid” value [1] read?
A: Its value is “abrogated by the addition of 2 mM proline”.

Q: What about the “GCN2 phosphorylation in fibroblasts” value [1] of the same compound?
A: The value was “Stimulation of GCN2 phosphorylation”.

Q: And the “translation of NoPro polypeptide” value [2]?
A: Its value is “had no effect on the translation of NoPro”.

Q: What about the “translation of ProPro polypeptide” value [2] of the same compound?
A: Its value is “prevented translation of ProPro”.

Q: And the “rescue of translation inhibition by added purified EPRS” value ([2]; 80 ng or 0.5 μg EPRS)?
A: Its value is “rescued HF/FF-inhibition of protein translation”.

Q: What about the “rescue of translation inhibition by added amino acids” value ([2]; excess amino acids (1-2 mM)) of the same compound?
A: The value was “only proline could restore translation”.

Q: And the “translation of luciferase RNA in RRL” value [2]?
A: The value was “inhibited the translation of luciferase RNA”.

Q: Which “activity in cell-based assays” value [3] does the source give for `CC(C)(C)OC(=O)N1CCC[C@H](O)[C@H]1CC(=O)Cn1cnc2cc(Br)c(Cl)cc2c1=O` [MAZ1310] here?
A: Its value is “lack activity”.

Q: What about the “translation of luciferase RNA in RRL” value [2] of the same compound?
A: The value was “no activity”.

Q: Which “reversal of GCN2 phosphorylation by cognate amino acid” value [1] does the source give for `C[C@@H]1C[C@H](C)C[C@H](C)[C@@H](O)CC(=O)O[C@H]([C@@H]2CCC[C@H]2C(=O)O)C/C=C/C=C(/C#N)[C@H](O)[C@@H](C)C1` [borrelidin] here?
A: Its value is “prevented by addition of an excess of its cognate amino acid threonine”.

Q: What about the “GCN2 phosphorylation in fibroblasts” value [1] of the same compound?
A: The value was “stimulate GCN2 phosphorylation”.

Q: What about the “production of collagen protein” value [4] of the same compound?
A: The value was “inhibited by borrelidin-treatment and rescued by the addition of threonine”.

Q: And the Th17 cell differentiation ([5]; 6 nM (3 ng/mL) borrelidin)?
A: The Th17 cell differentiation was “Selectively Inhibits Th17 Differentiation; also recorded: inhibited Th17 cell differentiation”.

Q: And the “reversal of Th17 inhibition by threonine” value [5]?
A: The value was “rescued by its cognate amino acid”.

Q: And the “reversal of Th17 inhibition by threonine” value ([5]; listed as Borrelidin)?
A: Its value is “reversed by the addition of threonine”.

Q: What about the “differentiation of Th1, Th2, or iTreg cells” value [6] of the same compound?
A: The value was “without perturbing the differentiation of Th1, Th2, or iTreg cells”.

Q: For `CC(=O)N1CCC[C@H](O)[C@H]1CC(=O)Cn1cnc2cc(Br)c(Cl)cc2c1=O` [MAZ1442], which “activity in cell-based assays” value [3] is on record?
A: Its value is “lack activity”.

Q: And the “translation of luciferase RNA in RRL” value [2]?
A: The value was “no activity”.

Q: With `NC(=O)c1ccc(-c2nc(-c3ccc4c(c3)OCO4)c(-c3ccccn3)[nH]2)cc1` [SB-431542] as the compound, how does the “TGFβ-induced Smad phosphorylation and other lymphocyte responses to TGFβ” value (TGFβ signaling) read?
A: Its value is “abrogated all responses to TGFβ”.

Q: What does the source list for `N[C@H](CO)Cc1c[nH]c2ccccc12` [L-tryptophanol]?
A: IL-17 production / Th17 differentiation [5]: impaired IL-17 production; IL-17 production / Th17 differentiation ([5]; listed as tryptophanol): inhibited Th17 differentiation; Th17 differentiation ([5]; 1 mM Tryptophanol): inhibits Th17 differentiation
